Test results published in patent publication US20180177849A1, “Therapeutic Uses of Elsiglutide” (HELSINN HEALTHCARE SA, priority 2015, published 2018).

Tests used:
[1] = Protection against 5-FU- and irinotecan-induced toxicities; design: species or system mice and rats; details: in vivo; daily ×3 or weekly ×4
Method: (§1) Studies were carried out in normal rats, rats bearing colon tumors and xenografts bearing human colon carcinoma, HCT8 and HT-29. Studies were carried out to test the hypothesis that elsiglutide offers selective protection against 5-Fluorouvacil-(5-FU) and irinotecan-induced toxicities and potentially enhances their antitumor activity. Elsiglutide was administered subcutaneously at non-toxic but therapeutically-effective dose of 1.8 mg/kg/day daily for 4 days, 30 min prior to each 5-FU/irinotecan dose. The tested doses of 5-FU were 100 mg/kg (MTD) and 200 mg/kg, and the doses of irinotecan were 100 mg/kg (MTD) and 200 mg/kg, either daily ×3 or weekly ×4.

[2] = system: rats bearing colon tumors and xenografts bearing human colon carcinoma, HCT8 and HT-29; assay: Antitumor activity in tumor-bearing rodents; assay type: in vivo; details: 5-FU/irinotecan alone
Method: as §1

Fischer rats [3] = assay: Survival / drug induced lethality; assay type: in vivo, rat; details: for rats died because of toxicity: days 6 and 7
Method: (§2) Elsiglutide was administered by subcutaneous (S.C) route at 1.8 mg/kg/day once a day for 4 days. Three doses were administered 30 minutes prior to each daily intravenous (I.V) dose of irinotecan. Only the fourth dose of elsiglutide was administered 24 hours after the last dose of irinotecan. Irinotecan was administered by intravenous (I.V) injection at the maximum tolerated and therapeutic dose, 100, 150, 200 mg/kg/day for 3 days.
10 rats were assessed for survival up to 4 weeks after treatments. During the study, the kinetics of drug induced toxicities in animals (weight loss/gain, stomatitis, lethality were monitored daily during the first 2 weeks then twice a week thereafter up to 4 weeks in the survival phase. At the end of the survival phase the rats were sacrificed.
(§3) Treatment groups and time when specific acquisition of tissues was obtained are outlined below. Fischer Rats (Female), weighing 150 to 180 g (8-12 weeks) were utilized. • Control, histology, d 9 and CBC, baseline, day 4 and day 9 • Control vehicle, histology, d 9 and CBC baseline, d 4 and d 9 • Irinotecan 100 mg/kg/d×3, I.V., histology, d 9 and CBC, baseline, d 4 and d 9 • Irinotecan 150 mg/kg/d×3, I.V., histology, d 9 and CBC, baseline, d 4 and d 9, and CBC, baseline, d 4 and d 9 • Irinotecan 200 mg/kg/d×3, I.V., histology 9, and CBC, d 4 and d 9 • Elsiglutide 1.8 mg/kg/d×4, S.C., histology, d 9 and CBC, baseline, d 4 and d 9 • CBC, baseline, d 4 and d 9 • Elsiglutide 1.8 mg/d×4, S.C+Irinotecan 150 mg/kg/d×3, I.V, histology, d 9, and CBD baseline, d 4 and d9 • Elsiglutide 1.8 mg/d×4, S.C.+Irinotecan 200 mg/kg/d×3, I.V, histology, d 9, and CBC d 4 and d 9 Each treatment groups consisted of 10 rats for histology of bone marrow, spleen and peripheral blood analysis, and for survivors. Evaluation of peripheral blood was carried out on day zero (0), four (4) and day nine (9), bone marrow and spleen analysis after (necropsy) was carried out on day nine (9).

spleen of Fischer rats = assay: Histopathological evaluation of spleen; assay type: in vivo, rat; details: Group 8, irinotecan 200 mg/kg i.v.; 5 dead animals
Method: (§4) The spleen and bone marrow of sternum of untreated Fischer rats and rats treated with irinotecan with 100, 150 and 200 mg/kg/d×3 alone and in combination with Elsiglutide (1.8 mg/kg/d×4) were examined histologically.
(§5) Histologic analysis using sternum bone marrow and spleen were carried out on day 9 (6 days after the administration of the last irinotecan dose on day 3). Bone marrow and spleen specimens were fixed in buffered formalin (10%) for 48 hours. The entire sternum and spleen were removed during autopsy at the end of the experiments on day 9. The samples were put in 10% buffered formalin for 48 hours in order to get appropriate fixation. After that the sternum was decalcified in a Rapid Decalcifier (RDO) from Apex Engineering Products Corporation (Aurora, Ill., USA) for 17 minutes when the sternum could be bent easily with fingers. When decalcification was complete, samples were taken out of solution and put under cold running water for 60 minutes to remove the decalcification solution containing hydrochloric acid as an active ingredient. Then the decalcified bone marrow and spleen specimen were processed, embedded in paraffin, cut (5 u) and stained conventionally with hematoxylin and eosin (HE). The HE stained slides were used for general orientation and evaluation under light microscope using various magnifications. […]

[4] = system: bone marrow of rat sternum; assay: Histopathological evaluation of sternum bone marrow; assay type: in vivo; details: Group 8, irinotecan 200 mg/kg i.v.; 5 dead animals
Method: as §4, §5

Fischer rats [5] = assay: Complete blood cell count (CBC) analysis of peripheral blood; assay type: in vivo, rat
Method: 8 to 12-week-old female Fischer 344/N rats (body weight 160-200 g) were obtained from Harlan Sprague Dawley Inc. (Indianapolis, Ind.).
Irinotecan was purchased as a ready-to-use formulation solution at a concentration of 20 mg/ml (100 mg in a 5 ml vial). For a rat of 150-200 g, an administration up to 2 ml solution (dose of 200 mg/kg/d×3) was required.
as §2
Hematological (CBC) Analysis • Complete blood cell count (CBC) analysis (days 0, 4, and 9) • From peripheral blood 14 markers, WBC (differential: neutrophils, lymphocytes, eosinophils, monocytes, basophils) and RDW-SD, RBC, HGB, HCT, MCV, MCH, MCHC, and Platelets were analyzed.
The statistical analysis of complete blood cells (CBC) results was carried out. The differences between the mean values in the different treatment groups were analyzed for significance.
as §3

[6] = enzymatic degradation by DPP IV in addition to renal clearance; cited from earlier work
[7] = irinotecan 200 mg/kg/day × 3, 5 dead rats, day 6 and day 7

## O=c1[nH]cc(F)c(=O)[nH]1 [5-FU, 5-fluorouracil]
[1]
  MTD: 100 mg/kg
[2]
  overall tumor growth inhibition: 30%

## CCc1c2c(nc3ccc(OC(=O)N4CCC(N5CCCCC5)CC4)cc13)-c1cc3c(c(=O)n1C2)COC(=O)[C@]3(O)CC [Irinotecan]
Fischer rats [3]; Group 5, irinotecan 150 mg/kg i.v., day 8, 5 rats per group
  rats died: One
Fischer rats [3]; Group 8, irinotecan 200 mg/kg i.v., day 7
  animals died with severe diarrhea: One
Fischer rats [3]; Group 8, irinotecan 200 mg/kg i.v., sacrificed before day 9
  rats in moribund condition with acute diarrhea: 4
Fischer rats [3]; irinotecan 150 mg/kg/d×3
  rats died because of toxicity: 10%
Fischer rats [3]; irinotecan 200 mg/kg/d×3
  rats died because of toxicity: Fifty
Fischer rats [3]; irinotecan 200 mg/kg/d×3 alone or in combination with elsiglutide
  animals which survived treatment: 50%
Spleen of Fischer rats
  extramedullary hematopoiesis in spleen: did not show any sign of extramedullary hematopoiesis
[4]
  decrease (myelosuppression) in hematopoiesis of sternum bone marrow: 95-98%
Fischer rats [5]; FIG. 1, Day 4
  Platelet/Group: did not change
  RBC/Group: did not change
Fischer rats [5]; FIG. 1, Day 4, after each dose of irinotecan
  WBC/group: decreased
Fischer rats [5]; FIG. 1, Day 9, irinotecan alone treated group
  WBC/group: did not reach the normal level
Fischer rats [5]; FIG. 1, after 200 mg/kg irinotecan
  Platelet/Group count: decreased
Fischer rats [5]; [7]
  Eosinophils Mean Value: 0.42
  Lymphocytes Mean Value: 1.55
  Monocytes Mean Value: 0.05
  WBC Mean Value: 2.18 10^3/µL
Fischer rats [5]; irinotecan 200 mg/kg/day × 3, 5 dead rats, day 6 and day 7, in fL (unit assumed)
  MCV Mean Value: 47.96
Fischer rats [5]; irinotecan 200 mg/kg/day × 3, 5 dead rats, day 6 and day 7, in g/dL (unit assumed)
  MCHC Mean Value: 36.52
[1]
  MTD: 100 mg/kg
[2]
  overall tumor growth inhibition: 30%

## Glucagon-like-peptide-2 [GLP-2(1-33)]
[6]
  half-life: about 7 minutes
